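Tested at 5 concentrations; 48 h exposure; 96-well plates; endpoints linearly interpolated, else capped at highest concentration. At the GI50, growth is halved. TGI: total growth inhibition.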
Key:
Test in all cases: DTP human tumour cell line panel, 48 h
HOP-92 NSCLC = system: HOP-92 NSCLC
T-47D breast = system: T-47D breast
SF-268 CNS = system: SF-268 CNS
K-562 leukemia = system: K-562 leukemia
SK-MEL-5 melanoma = system: SK-MEL-5 melanoma
HCC-2998 colon = system: HCC-2998 colon
MCF7 breast = system: MCF7 breast
UACC-257 melanoma = system: UACC-257 melanoma
UO-31 renal = system: UO-31 renal
PC-3 prostate = system: PC-3 prostate
A498 renal = system: A498 renal
HS 578T breast = system: HS 578T breast
OVCAR-3 ovarian = system: OVCAR-3 ovarian
HL-60(TB) leukemia = system: HL-60(TB) leukemia
HOP-62 NSCLC = system: HOP-62 NSCLC
COLO 205 colon = system: COLO 205 colon
DU-145 prostate = system: DU-145 prostate
MOLT-4 leukemia = system: MOLT-4 leukemia
IGROV1 ovarian = system: IGROV1 ovarian
HT29 colon = system: HT29 colon
KM12 colon = system: KM12 colon
UACC-62 melanoma = system: UACC-62 melanoma
OVCAR-4 ovarian = system: OVCAR-4 ovarian
TK-10 renal = system: TK-10 renal
MALME-3M melanoma = system: MALME-3M melanoma
MDA-MB-231 breast = system: MDA-MB-231 breast
SR leukemia = system: SR leukemia

## NC(=Nc1ccc(OCCCCCCCCn2ccnn2)cc1)c1ccccc1
HOP-92 NSCLC
  GI50: 1200 nM
  TGI: 28800 nM
T-47D breast
  GI50: 449 nM
  TGI: 34400 nM
SF-268 CNS
  GI50: 1170 nM
  TGI: 25400 nM
K-562 leukemia
  GI50: 144 nM
  TGI: > 56000 nM
SK-MEL-5 melanoma
  GI50: 157 nM
  TGI: 1720 nM
HCC-2998 colon
  GI50: 535 nM
  TGI: 11200 nM
MCF7 breast
  GI50: 124 nM
  TGI: 18800 nM
UACC-257 melanoma
  GI50: 952 nM
  TGI: 18500 nM
UO-31 renal
  GI50: 565 nM
  TGI: 19900 nM
PC-3 prostate
  GI50: 337 nM
  TGI: > 44900 nM
A498 renal
  GI50: 4750 nM
  TGI: 28400 nM
HS 578T breast
  GI50: 271 nM
  TGI: 7440 nM
OVCAR-3 ovarian
  GI50: 126 nM
  TGI: 5000 nM
HL-60(TB) leukemia
  GI50: 239 nM
  TGI: 2900 nM
HOP-62 NSCLC
  GI50: 466 nM
  TGI: 15000 nM
COLO 205 colon
  GI50: 238 nM
  TGI: 1140 nM
DU-145 prostate
  GI50: 446 nM
  TGI: 24600 nM
MOLT-4 leukemia
  GI50: 585 nM
  TGI: > 49600 nM
IGROV1 ovarian
  GI50: 564 nM
  TGI: 16800 nM
HT29 colon
  GI50: 293 nM
  TGI: 884 nM
KM12 colon
  GI50: 269 nM
  TGI: 19000 nM
UACC-62 melanoma
  GI50: 215 nM
  TGI: 13100 nM
OVCAR-4 ovarian
  GI50: 4260 nM
  TGI: > 62900 nM
TK-10 renal
  GI50: 3000 nM
  TGI: 45000 nM
MALME-3M melanoma
  GI50: 300 nM
  TGI: 15900 nM
MDA-MB-231 breast
  GI50: 557 nM
  TGI: 12700 nM
SR leukemia
  GI50: 606 nM
  TGI: > 100000 nM
